Literature values in PubChem BioAssay AID1259409 (Chemical Carcinogenesis Research Information System (CCRIS), 2018).

Test system: rodent chemically induced tumor inhibition, incidence and multiplicity
Assay: CCRIS tumor inhibitor studies
Settings: for outcome: Carcinogen: 1,2-Dimethylhydrazine dihydrochloride (306-37-6), Route [Inhibitor]: Oral, Species: Rat, Strain/Sex: Fischer 344/male, Target Tissue: Type of Lesion: Colon: tumors, Dose [Carcinogen]: 20 mg/kg once a wk for 4 wk, Promoter: None

## NC(N)=NCCC[C@H](N)C(=O)O
Carcinogen: 7,12-DIMETHYLBENZ[A]ANTHRACENE, 57-97-6, Dose [Inhibitor]: 0, 5% IN A 14% CASEIN DIET BEGINNING 2 WK PRIOR TO CARCINOGEN DOSE AND CONTINUING FOR 21 WK (STUDY DURATION: 23 WK), Route [Inhibitor]: ORAL, Species: RAT, Strain/Sex: SPRAGUE-DAWLEY/FEMALE, Target Tissue: Type of Lesion: MAMMARY GLAND: TUMOR, Dose [Carcinogen]: 7.5 MG IN 0.75 ML SESAME OIL ONCE AT 50 D OF AGE, Promoter: NONE USED
  tumour outcome (control, treated, inhibition, significance): 24/30 (80%), 22/30 (73%), 8%, not significant
Carcinogen: 7,12-DIMETHYLBENZ[A]ANTHRACENE, 57-97-6, Dose [Inhibitor]: 5% L-ARGININE IN DIET STARTING 7 D BEFORE DMBA ADMINISTRATION (STUDY DURATION: 21 WK), Route [Inhibitor]: ORAL, Species: RAT, Strain/Sex: SPRAGUE DAWLEY/FEMALE, Target Tissue: Type of Lesion: MAMMARY GLAND: TUMOR, Dose [Carcinogen]: 15% OIL EMULSION, 25 MG/KG BW ADMINISTERED ONCE, Promoter: NONE USED
  tumour outcome (control, treated, inhibition, significance): 95%, 25%, 74%, not calculated
Carcinogen: 7,12-DIMETHYLBENZ[A]ANTHRACENE, 57-97-6, Dose [Inhibitor]: 5% L-ARGININE IN DIET STARTING 7 D BEFORE DMBA TREATMENT FOR 3 M AND THEN CONTROL DIET (STUDY DURATION: 32 WK), Route [Inhibitor]: ORAL, Species: RAT, Strain/Sex: SPRAGUE DAWLEY/FEMALE, Target Tissue: Type of Lesion: MAMMARY GLAND: TUMOR, Dose [Carcinogen]: 15% OIL EMULSION, 25 MG/KG BW ADMINISTERED ONCE, Promoter: NONE USED
  tumour outcome (control, treated, inhibition, significance): 100%, 80%, 20%, not calculated
Carcinogen: HYDRAZINE SULFATE, 10034-93-2, Dose [Inhibitor]: 1.1 MG/D IN DIET STARTING 1 WK PRIOR TO ADMINISTRATION OF CARCINOGEN UNTIL END OF EXPERIMENT (STUDY DURATION: APPROXIMAT, Route [Inhibitor]: ORAL, Species: MOUSE, Strain/Sex: SWISS/MALE, FEMALE, Target Tissue: Type of Lesion: LIVER AND LUNG: COMBINED TUMORS, Dose [Carcinogen]: 1.1 MG/D 5 D/WK UNTIL 12 MO OF AGE, Promoter: NONE USED
  tumour outcome (control, treated, inhibition, significance): 24/29 (83%), 11/18 (61%), 26%, not significant
Carcinogen: ISONIAZID, 54-85-3, Dose [Inhibitor]: 1.1 MG/MOUSE/D SIMULTANEOUS WITH CARCINOGEN 6 D/WK (STUDY DURATION: 24 MO), Route [Inhibitor]: INTRAGASTRIC, Species: MOUSE, Strain/Sex: SWISS/MALE, Target Tissue: Type of Lesion: LUNG: TUMOR, Dose [Carcinogen]: 1.1 MG/MOUSE/D SIMULTANEOUS WITH INHIBITOR, Promoter: NONE USED
  tumour outcome (control, treated, inhibition, significance): 15/29 (52%), 3/10 (30%), 42%, not significant
Carcinogen: N-METHYL-N-NITROSOUREA, 684-93-5, Dose [Inhibitor]: 0, 5% IN A 14% CASEIN DIET BEGINNING 2 WK PRIOR TO CARCINOGEN DOSE AND CONTINUING FOR 21 WK (STUDY DURATION: 23 WK), Route [Inhibitor]: ORAL, Species: RAT, Strain/Sex: SPRAGUE-DAWLEY/FEMALE, Target Tissue: Type of Lesion: MAMMARY GLAND: TUMOR, Dose [Carcinogen]: 4 MG/100 G BW ONCE AT 50 D OF AGE, Promoter: NONE USED
  tumour outcome (control, treated, inhibition, significance): 28/30 (93%), 27/30 (90%), 3%, not significant

## C=C(C)C1CC=C(C)C(O)C1 (stereo unspecified)
Carcinogen: 7,12-DIMETHYLBENZ[A]ANTHRACENE, 57-97-6, Dose [Inhibitor]: 0, 1% IN DIET FOR 3 WK BEGINNING 2 WK PRIOR TO CARCINOGEN DOSE (STUDY DURATION: 20 WK), Route [Inhibitor]: ORAL, Species: RAT, Strain/Sex: WISTAR/FEMALE, Target Tissue: Type of Lesion: MAMMARY GLAND: CARCINOMA, Dose [Carcinogen]: 50 MG/KG IN SESAME OIL ONCE, Promoter: NONE USED
  tumour outcome (control, treated, inhibition, significance): 98%, 92%, 6%, not significant

## O=c1ccc2cc(O[C@@H]3O[C@H](CO)[C@@H](O)[C@H](O)[C@H]3O)c(O)cc2o1
Dose [Inhibitor]: 0.05% in tap water beginning 7 d before first carcinogen administration to end of last carcinogen administration, animal
  outcome: 5 (31%) vs 10 (62.5% in positive controls) (p <0.05)
Dose [Inhibitor]: 0.05% in tap water beginning after last carcinogen administration to end of 16 wk study
  outcome: 9 (56.3%) vs 10 (62.5%) in positive controls; ns
Carcinogen: BENZO[A]PYRENE, 50-32-8, Dose [Inhibitor]: 25 MG IN 0.1 ML DMSO 3/WK ADMINISTERED SIMULTANEOUSLY WITH CARCINOGEN FOR DURATION OF STUDY (STUDY DURATION: 368 D), Route [Inhibitor]: DERMAL, Species: MOUSE, Strain/Sex: ICR/FEMALE, Target Tissue: Type of Lesion: SKIN: PAPILLOMA, Dose [Carcinogen]: 5 UG IN 0.1 ML DMSO 3/WK FOR DURATION OF STUDY, Promoter: NONE USED
  tumour outcome (control, treated, inhibition, significance): 13/50 (26%), 0/50 (0%), 100%, not calculated
Carcinogen: BENZO[A]PYRENE, 50-32-8, Dose [Inhibitor]: 25 MG IN 0.1 ML DMSO 3/WK ADMINISTERED SIMULTANEOUSLY WITH CARCINOGEN FOR DURATION OF STUDY (STUDY DURATION: 368 D), Route [Inhibitor]: DERMAL, Species: MOUSE, Strain/Sex: ICR/FEMALE, Target Tissue: Type of Lesion: SKIN: SQUAMOUS CARCINOMA, Dose [Carcinogen]: 5 UG IN 0.1 ML DMSO THAT ALSO CONTAINED AGENT, 3/WK, FOR DURATION OF STUDY, Promoter: NONE USED
  tumour outcome (control, treated, inhibition, significance): 6/50 (12%), 0/50 (0%), 100%, not calculated

## N#Cc1ccc(C(c2ccc(C#N)cc2)n2cncn2)cc1
Carcinogen: NONE, Dose [Inhibitor]: 0, 0.1 MG/KG BW/D FOR 104 WK (STUDY DURATION: 104 WK), Route [Inhibitor]: NOT SPECIFIED, Species: RAT, Strain/Sex: SPRAGUE-DAWLEY/FEMALE, Target Tissue: Type of Lesion: REPRODUCTIVE TRACT (DISTAL): BENIGN GRANULAR CELL TUMOR, Promoter: NONE
  tumour outcome (control, treated, inhibition, significance): 7/60 (12%), 0/60 (0%), 100%, not calculated
Carcinogen: NONE, Dose [Inhibitor]: 0, 1 MG/KG BW/D FOR 104 WK (STUDY DURATION: 104 WK), Route [Inhibitor]: NOT SPECIFIED, Species: RAT, Strain/Sex: SPRAGUE-DAWLEY/FEMALE, Target Tissue: Type of Lesion: REPRODUCTIVE TRACT (DISTAL): BENIGN GRANULAR CELL TUMOR, Promoter: NONE
  tumour outcome (control, treated, inhibition, significance): 7/60 (12%), 0/60 (0%), 100%, not calculated
Carcinogen: NONE, Dose [Inhibitor]: 0, 10 MG/KG BW/D FOR 104 WK (STUDY DURATION: 104 WK), Route [Inhibitor]: NOT SPECIFIED, Species: RAT, Strain/Sex: SPRAGUE-DAWLEY/FEMALE, Target Tissue: Type of Lesion: REPRODUCTIVE TRACT (DISTAL): BENIGN GRANULAR CELL TUMOR, Promoter: NONE
  tumour outcome (control, treated, inhibition, significance): 7/60 (12%), 0/60 (0%), 100%, not calculated

## CCCCCCCCCCCCCCCCCCCCCCCCCCCCOC(=O)/C=C/c1ccc(O)c(OC)c1
Carcinogen: 7,12-DIMETHYLBENZ[A]ANTHRACENE, 57-97-6, Dose [Inhibitor]: 0, 2 UMOL IN ACETONE/DMSO (9:1) 2/WK FOR 20 WK BEGINNING 1 WK POST CARCINOGEN DOSE (STUDY DURATION: 20 WK), Route [Inhibitor]: DERMAL, Species: MOUSE, Strain/Sex: ICR/FEMALE, Target Tissue: Type of Lesion: SKIN: PAPILLOMA, Dose [Carcinogen]: 50 UG ONCE, Promoter: 12-O-TETRADECANOYLPHORBOL-13-ACETATE, 16561-29-8
  tumour outcome (control, treated, inhibition, significance): 100%, 20%, 80%, not calculated

## O=c1c2ccccc2[se]n1-c1ccccc1
Carcinogen: 17BETA-ESTRADIOL, 50-28-2, Dose [Inhibitor]: 0, 0.2% IN DIET BEGINNING 5 D POST CARCINOGEN DOSE (STUDY DURATION: 7.5 MO), Route [Inhibitor]: ORAL, Species: HAMSTER, Strain/Sex: SYRIAN/MALE, Target Tissue: Type of Lesion: KIDNEY: TUMOR, Dose [Carcinogen]: 25 MG PELLET REPLACED WITH A SECOND PELLET AFTER 4 MO, Promoter: NONE USED
  tumour outcome (control, treated, inhibition, significance): 13/13 (100%), 8/11 (73%), 27%, p<0.05
